According to PubChem BioAssay (NCI):
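In this assay, cells in 96-well plates receive the compound at five concentrations for 48 hours. Endpoints are linearly interpolated between the surrounding concentrations. Abbreviation: GI50, concentration required for 50% inhibition of growth. TGI is the concentration that stops growth completely.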

How the values were obtained:
Assay in all cases: DTP human tumour cell line panel, 48 h
COLO 205 colon = system: COLO 205 colon
SW-620 colon = system: SW-620 colon
HCT-15 colon = system: HCT-15 colon
IGROV1 ovarian = system: IGROV1 ovarian
UACC-62 melanoma = system: UACC-62 melanoma
RXF 393 renal = system: RXF 393 renal
ACHN renal = system: ACHN renal
NCI-H23 lung = system: NCI-H23 lung
NCI-H522 lung = system: NCI-H522 lung
EKVX NSCLC = system: EKVX NSCLC

Compound	GI50 (COLO 205 colon)	TGI (COLO 205 colon)	GI50 (SW-620 colon)	TGI (SW-620 colon)	GI50 (HCT-15 colon)	TGI (HCT-15 colon)	GI50 (IGROV1 ovarian)	TGI (IGROV1 ovarian)	GI50 (UACC-62 melanoma)	TGI (UACC-62 melanoma)	GI50 (RXF 393 renal)	TGI (RXF 393 renal)	GI50 (ACHN renal)	TGI (ACHN renal)	GI50 (NCI-H23 lung)	TGI (NCI-H23 lung)	GI50 (NCI-H522 lung)	TGI (NCI-H522 lung)	GI50 (EKVX NSCLC)	TGI (EKVX NSCLC)
COc1cc2cc(Oc3ccc(NC(=O)c4ccc(Cl)c(Cl)c4)cc3)c(C)nc2cc1OC	6.44 µM	> 100 µM	> 100 µM	> 100 µM	7.94 µM	> 100 µM	> 100 µM	> 100 µM	> 100 µM	> 100 µM	9.66 µM	> 100 µM	8.63 µM	> 100 µM	6.68 µM	> 100 µM	6.27 µM	> 100 µM	6.8 µM	> 100 µM
COc1cc(C(=O)Nc2cc(O)c(CC=C(C)C)c(O)c2)cc2c1O[C@]1(C)CC[C@@H](O)C(C)(C)[C@H]1C2	1.37 µM	7.98 µM	1.15 µM	11.9 µM	1.32 µM	14.4 µM	7.06 µM	46.3 µM	0.187 µM	1.57 µM	0.0345 µM	2.89 µM	1.78 µM	24.3 µM	5.42 µM	35.9 µM	1.92 µM	14.6 µM	2.71 µM	32 µM
O=Nc1c(-c2c(O)[nH]c3ncccc23)[nH]c2ccccc12	28.4 µM	> 100 µM	11.3 µM	> 100 µM	3.92 µM	> 100 µM	1.72 µM	> 100 µM		> 100 µM	> 100 µM	> 100 µM	2.58 µM	> 100 µM	> 100 µM	> 100 µM	> 53.6 µM	> 100 µM	1.32 µM	> 100 µM
COc1ccc2c(-c3ccnc(Nc4cccc(OC(F)(F)F)c4)n3)cnn2n1	1.3 µM	> 19.9 µM	0.856 µM	4.84 µM	1.03 µM	> 23 µM	2.39 µM	> 12.5 µM	0.863 µM	6.94 µM	1.74 µM	6.66 µM	1.8 µM	> 25 µM	1.2 µM	7.41 µM	0.366 µM	1.77 µM	2.87 µM	> 25 µM
CC1=C(C(=O)Nc2ccc(Cl)c(Cl)c2)C(c2ccc([N+](=O)[O-])cc2)C(C(=O)Nc2ccc(Cl)c(Cl)c2)=C(C)N1		3.13 µM		12.4 µM		7.88 µM		14.8 µM		4.46 µM		6.16 µM		16.9 µM		5.98 µM		8.85 µM		15.4 µM
O=c1c2cc(F)ccc2sc2c(NCCCNCCO)nc3ccccc3c12	2.08 µM	4.66 µM	1.62 µM	3.14 µM	1.63 µM	3.12 µM	1.43 µM	2.9 µM	1.73 µM	3.23 µM	1.49 µM	2.9 µM	1.67 µM	3.03 µM	1.72 µM	3.22 µM	1.87 µM	3.8 µM	1.67 µM	3.47 µM
Nc1n[nH]c2ccc([C@@H]3Nc4cc5c(cc4[C@H]4C6CCC(C6)[C@@H]34)C(=O)NC5)cc12 (stereo partly drawn)	0.326 µM	1.7 µM	0.362 µM	> 100 µM	0.601 µM	> 100 µM	0.417 µM	> 100 µM	0.408 µM	> 100 µM	0.273 µM		0.726 µM	> 100 µM	0.431 µM	> 100 µM	0.305 µM	> 100 µM	0.734 µM	> 100 µM
COc1cc2c(cc1F)C(c1ccccc1Cl)=Nc1c(n[nH]c1C)N2	0.416 µM	3.79 µM	0.486 µM	20 µM	0.705 µM	19.7 µM	1.54 µM	18 µM	0.995 µM	17.2 µM	0.242 µM	1.46 µM	1.45 µM	10.2 µM	3.79 µM	21 µM	0.415 µM	20.9 µM	2.84 µM	18.4 µM
C=CCc1cc(Nc2c3ccc(Cl)cc3nc3ccc(OC)cc23)cc(CN(CC)CC)c1O	1.39 µM	3 µM	1.97 µM	11.4 µM	2.59 µM	12 µM	2.69 µM	21.1 µM	1.75 µM	4.4 µM	1.23 µM	4.66 µM	2.12 µM	13.1 µM	0.559 µM	9.91 µM	1.77 µM	5.96 µM	0.661 µM	11.1 µM
Cc1ccncc1C(N)=O	> 100 µM	> 100 µM	> 100 µM	> 100 µM	> 100 µM	> 100 µM	> 100 µM	> 100 µM	> 100 µM	> 100 µM	> 100 µM	> 100 µM	> 100 µM	> 100 µM	> 100 µM	> 100 µM	> 100 µM	> 100 µM	> 100 µM	> 100 µM
COc1ccc(-c2[nH]c3ccccc3c2CCNS(=O)(=O)c2ccc(C)cc2)cc1		4.03 µM		> 10 µM		> 10 µM		> 10 µM		> 10 µM		> 10 µM		> 10 µM		> 10 µM		> 10 µM		> 10 µM
Oc1cccc2c1NCCC2	2.84 µM	12.9 µM	0.133 µM	> 100 µM	0.19 µM	> 100 µM	0.745 µM	> 100 µM	0.144 µM	4.51 µM	0.177 µM	32.7 µM	0.127 µM	> 70.7 µM	0.103 µM	> 37 µM	0.0937 µM	1.75 µM	1.78 µM	> 100 µM
COc1ccc2c(c1)C(=O)c1c-2c(OCCN(C)C)nc2ccccc12	1.83 µM	10.1 µM	0.823 µM	3.26 µM	2.02 µM	11.3 µM	2.97 µM	14.8 µM	3.9 µM	15.7 µM	3.79 µM	15.7 µM	1.62 µM	5.47 µM	3.8 µM	16.7 µM	1.87 µM	4.75 µM	2.05 µM	7.8 µM
O=C1c2ccccc2N2OC3(N4CCCC4)CCCCC3C12c1ccccc1 (stereo not drawn)		31 µM		31.5 µM		> 100 µM		> 100 µM		40.1 µM		39.4 µM		43.8 µM		86 µM		29.1 µM		> 100 µM
COC(=O)C(C(=O)C(=O)Nc1ccc([N+](=O)[O-])cc1)c1nc2ccc([N+](=O)[O-])cc2[nH]c1=O (stereo not drawn)		> 100 µM		> 100 µM		> 100 µM		> 100 µM		> 100 µM		> 100 µM		> 100 µM		> 100 µM		> 100 µM		> 100 µM
Cc1cccc(NC(=O)/C(=N\N)C(c2cnc3ccc([N+](=O)[O-])cc3n2)[N+](=O)[O-])c1C (stereo not drawn)		> 100 µM		> 100 µM		> 100 µM		> 100 µM		> 100 µM		> 100 µM		> 100 µM		> 100 µM		> 100 µM		> 100 µM
Cc1[nH]nc(-c2ccon2)c1N=O		49.4 µM		49.1 µM		34.7 µM		70.1 µM		34.7 µM		97.7 µM		28.4 µM		45.8 µM		48.5 µM		31.3 µM
FC(F)(F)c1cccc(-c2nn3ncccc3c2-c2ccnc(Nc3ccc4c(c3)OCCO4)n2)c1	14.1 µM	> 25 µM	9.68 µM	> 25 µM	6.59 µM	> 25 µM	5.38 µM	> 22.2 µM	15 µM	> 25 µM	6.83 µM	> 25 µM	6.42 µM	> 25 µM	14.8 µM	> 25 µM	14 µM	> 25 µM	13.9 µM	> 25 µM
